Laboratory results: patent US12357669B1, “Modification of natural compounds to create products with enhanced health benefits” (priority 2024, dated 2025)

Test system: patient with continuously active ulcerative colitis (UC)
Assay: observations in a patient with continuously active ulcerative colitis (UC)
Type: in vivo, human
Settings: components without prior formation of the chelate/complex
Source text: Many patients with ulcerative colitis have remitting/recurring disease activity which occurs spontaneously at random times. Other factors, such as changes in diet, stress, intercurrent use of medications either to control symptoms of UC or used to treat other conditions, such as antibiotics non steroidal pain medications and steroids, may make inflammation and symptoms worse or better depending on their particular properties.
Some patients with UC have unremitting continuously active disease which never goes into remission spontaneously. Such patients make excellent study subjects since the action of compounds designed to reduce disease activity and symptoms can be evaluated without the complicating factor of spontaneous changes in disease severity.
In the patient studied in this report disease activity was observed over several decades and was continuously active with no spontaneous remissions.

Substance: iron
- amelioration of the symptoms of ulcerative colitis: not seen
